Assays:
[1] = system: experimental autoimmune encephalomyelitis (EAE) mouse model; test: Study EAE-C03: clinical score in EAE mouse model, treatment in chronic phase; format: in vivo; conditions: after 17 days of treatment, treatment started in chronic phase
Protocol: Three in vivo studies supporting the medical plausibility of BN201 in the treatment of MS and optic neuritis were performed. These studies sought to test the neuroprotective effect of BN201 and were conducted in the neurodegenerative and demyelinating experimental autoimmune encephalomyelitis (EAE) mouse model. Immune response to Myelin Basic Protein (MBP) or Myelin Proteolipid Protein (PLP) induces lesions located predominantly in the spinal cord whereas immunization with Myelin Oligodendrocyte Glycoprotein (MOG) generates lesions located predominantly in the optic nerve and spinal cord. In the literature, the EAE model is commonly used as a model of MS and optic neuritis, since it can cause irreversible visual loss (Kezuka et al, Analysis of the pathogenesis of experimental autoimmune optic neuritis. J Biomed Biotechnol. 2011; 2011:294046; Guo et al, Decreased neural stem/progenitor cell proliferation in mice with chronic/nonremitting experimental autoimmune encephalomyelitis. Neurosignals. 2010; 18(1):1-8).
Study EAE-C03: daily i.p. administration of BN201 at two different concentrations was tested versus placebo according to the following experimental design: • EAE affected placebo-treated animals (pathological control group); • EAE-affected animals treated with BN201 at 50 mg/kg dose and • EAE-affected animals treated with BN201 at 100 mg/kg dose. […]

[2] = system: EAE in C57BL6 mice immunized with MOG35-55; test: Example 3: BN201 and DMF combination, progression of chronic EAE; format: in vivo, mouse; conditions: BN201 25 mg/kg i.p. alone (suboptimal), once a day six days per week from day 15
Protocol: Effect in the animal model of MS (i.e., EAE in C57BL6 mice immunized with MOG35-55), similar to Example 2.
Starting on day 15, mice were administered: • dimethyl fumarate (DMF) (group A, 10 mice), • BN201 (group B, 10 mice) • a combination thereof (group C, 10 mice) once a day for six days per week at suboptimal dosages (10 mg/kg for DMF, 25 mg/kg for BN201).
DMF was administered orally with a rigid cannula in a saline vehicle at a volume of 10 mL/kg, while BN201 was administered via i.p. injection in a saline vehicle at a volume of 5 mL/kg. Control mice received vehicle only via both oral and i.p. injection (group D, 10 mice) or nothing at all (group E, 2 mice).
The objective of the study was to evaluate the efficacy and safety of combination therapy with suboptimal doses of BN201 (25 mg/kg) and dimethyl-fumarate (DMF) (10 mg/kg) in the progression of chronic EAE in mice.
During a one week acclimation period starting on day −7, mice were distributed based on body weight stratification into different experimental groups. On day 0, mice were immunized subcutaneously in both hind pads with 150 μg of MOG peptide 35-55 (Spikem, Firenze) emulsified with 50 μg of Mycobacterium tuberculosis (H37Ra strain; Difco, Detroit, MI) in incomplete Freund's adjuvant (IFA). […]

[3] = system: experimental autoimmune encephalomyelitis (EAE) mouse model; test: Study EAE-C06: dose response of BN201, clinical score in EAE mouse model; format: in vivo; conditions: almost all days of observation/treatment (Day 2 to day 30)
Protocol: A third experiment (Study EAE-C06) to test dose response of BN201 was then performed using the same mouse model.
Study EAE-C06: five different concentrations of BN201: 12.5 mg/kg, 25 mg/kg, 50 mg/kg, 100 mg/kg, and 150 mg/kg. Also sham, pathological control and FTY720 (2 mg/kg) comparator groups were included in the experiment. All groups were administered daily.
(§1) Clinical scores were assigned to assess disease severity using the following scale: 0=normal; 0.5=Partial tail paralysis; 1=Complete tail paralysis; 1.5=Tail paralysis and loss of righting reflex; 2=Partial hind limb paralysis/paralysis of one limb; 2.5=One limb paralysis and partial loss of activity of one other limb; 3=Bilateral hind limb paralysis; 4=Moribund; 5=exitus.
Therapeutic treatment was initiated on day 12 once each mouse started showing complete tail paralysis (Score 1).
Data are depicted in FIG. 1 (C), wherein the clinical score for each of the tested groups is plotted per day after disease onset.

[4] = system: experimental autoimmune encephalomyelitis (EAE) mouse model; test: Study EAE-C05: clinical score in EAE mouse model with active comparators; format: in vivo; conditions: 100 mg/kg daily, after 5 days of treatment
Protocol: A second experiment (Study EAE-C05) was then performed using the same mouse model.
Study EAE-C05: In addition to two dose levels of BN201 and a placebo-treated group (pathological control group), the study design introduced two active comparators, dimethyl fumarate (DMF) and fingolimod (FTY720), and a sham group (group in which animals were manipulated as the pathological group but without MOG injection). All groups were administered daily. • sham control non-diseased placebo-treated animals (healthy control group); • EAE-affected placebo-treated animals (pathological control group); • EAE-affected animals treated orally with 15 mg/kg of DMF; • EAE-affected animals treated with 2 mg/kg of FTY720; • EAE-affected animals treated with BN201 at 50 or 100 mg/kg.
as §1
Therapeutic treatment was initiated on day 12 or 13, once each mouse started showing complete tail paralysis (Score 1).

## CC(C)CN(CC(=O)N(CCCN1CCCC1=O)CC(N)=O)C(=O)CNCCc1ccccc1F [BN201, [N-(2-(2′-Fluorophenyl)ethyl)glycyl]-[N-(2-methylpropyl)glycyl]-N-[3-(2′-oxopyrrolidinyl)-propyl]glycinamide]
[1]; 50 mg/kg daily i.p.
  clinical score compared to placebo: significantly decreased the clinical score
[1]; 100 mg/kg daily i.p.
  clinical score compared to placebo: significantly decreased the clinical score
[2]
  course of EAE (clinical score) versus placebo: suffered EAE similar to those mice treated with placebo
[3]; 50 mg/kg daily
  clinical score: significant amelioration of the clinical score
[3]; 100 mg/kg daily
  clinical score: significant amelioration of the clinical score
[4]
  clinical score compared to pathological control group: significantly lower

Source: patent US20260232752A1, “COMBINATION THERAPY METHODS, COMPOSITIONS AND KITS” (Accure Therapeutics, S.L., priority 2019, published 2026)
